Test results reported in article PMC12935787, “Clinical pharmacokinetics and pharmacometabolomics of Andrographis paniculata capsules: Bridging drug disposition and metabolic response to precision medicine” (Naunyn-Schmiedeberg's Archives of Pharmacology, 2025).
Like-named read-outs stand apart in the source and are kept apart here.

Test: Clinical pharmacokinetics, plasma LC-MS/MS after single oral dose of AP capsules
Type: in vivo, human (healthy volunteers)
Conditions: human, plasma, oral, 2000 mg, 2000 mg AP capsules, read-out: Plasma concentration; for concentration at 0.5 h: 0.50 h; for concentration at 1.5 h: 1.50 h; for concentration at 2.5 h: 2.50 h; for concentration at 3.5 h: 3.50 h
Description: The protocol was published (Tee et al. [2022]).
Seven calibrators ranging from 1, 2, 5,10, 20, 50, and 100 ng mL^−1 were prepared. Frozen plasma was thawed, vortexed-mixes, and processed via protein precipitation: 50 µL plasma plus 100 µL 0.01% ammonia in methanol were vortexed (20 s), centrifuged (14800 rpm, 5 min) and […] supernatant was transferred to 2 mL vials with inserts. LC–MS/MS injection volume: 10 µL. The separation used a Phenomenex Gemini-NX C18 column (150 × 2.1 mm, 5 μm) with 0.01% ammonia (A) and acetonitrile/methanol (1:1, B) as mobile phases (0.30 mL min^-1). The gradient program: 40% B (0 min), linear increase to 95% B (3 min), hold to 5 min, sharp decrease to 10% B (5.01 min), hold to 7 min, return to 40% B (7.01 min), and re-equilibration to 10 min. Mass detection employed an LCMS-8060NX triple quadrupole with heated ESI in negative mode, monitoring specific MRM transitions: andrographolide (349.3 → 331.2/287.1), 14-deoxyandrographolide (331.2 → 108.0/301.1), and neoandrographolide (479.1 → 317.4/161.1).
Pharmacokinetic parameters were determined from plasma samples (5 subjects, 15 time points) analyzed via LC–MS/MS (Shimadzu 8060NX). […] Specific MRM transitions for andrographolide, 14-deoxyandrographolide, and neoandrographolide in plasma samples of subjects are illustrated in Figure S3. […] The dose-dependent concentration–time curves, pharmacokinetics profiles (Fig. 2a, b and c) and comprehensive individual PK data (Table S4) provide a foundation for developing personalized AP dosing regimens, supporting its precision medicine potential.

concentration at 0 h (S1): 0 ng/mL
concentration at 0.5 h (S1): 3.76 ng/mL
concentration at 1 h (S1): 2.41 ng/mL
concentration at 1.5 h (S1): 6.36 ng/mL
concentration at 2 h (S1): 5.31 ng/mL
concentration at 2.5 h (S1): 2.17 ng/mL
concentration at 3 h (S1): 3.86 ng/mL
concentration at 3.5 h (S1): 2.81 ng/mL
concentration at 4 h (S1): 0 ng/mL
concentration at 5 h (S1): 0 ng/mL
concentration at 6 h (S1): 0 ng/mL
concentration at 8 h (S1): 0 ng/mL
concentration at 10 h (S1): 0 ng/mL
concentration at 12 h (S1): 0 ng/mL
concentration at 24 h (S1): 0 ng/mL
concentration at 0 h (S2): 0 ng/mL
concentration at 0.5 h (S2): 0 ng/mL
concentration at 1 h (S2): 3.98 ng/mL
concentration at 1.5 h (S2): 5.56 ng/mL
concentration at 2 h (S2): 5.07 ng/mL
concentration at 2.5 h (S2): 3.13 ng/mL
concentration at 3 h (S2): 4.68 ng/mL
concentration at 3.5 h (S2): 0 ng/mL
concentration at 4 h (S2): 0 ng/mL
concentration at 5 h (S2): 0 ng/mL
concentration at 6 h (S2): 0 ng/mL
concentration at 8 h (S2): 0 ng/mL
concentration at 10 h (S2): 0 ng/mL
concentration at 12 h (S2): 0 ng/mL
concentration at 24 h (S2): 0 ng/mL
concentration at 0 h (S3): 0 ng/mL
concentration at 0.5 h (S3): 39.4 ng/mL
concentration at 1 h (S3): 13.8 ng/mL
concentration at 1.5 h (S3): 14.2 ng/mL
concentration at 2 h (S3): 4.19 ng/mL
concentration at 2.5 h (S3): 3.47 ng/mL
concentration at 3 h (S3): 0 ng/mL
concentration at 3.5 h (S3): 0 ng/mL
concentration at 4 h (S3): 0 ng/mL
concentration at 5 h (S3): 0 ng/mL
concentration at 6 h (S3): 0 ng/mL
concentration at 8 h (S3): 0 ng/mL
concentration at 10 h (S3): 0 ng/mL
concentration at 12 h (S3): 0 ng/mL
concentration at 24 h (S3): 0 ng/mL
concentration at 0 h (S4): 0 ng/mL
concentration at 0.5 h (S4): 0 ng/mL
concentration at 1 h (S4): 18.3 ng/mL
concentration at 1.5 h (S4): 22.1 ng/mL
concentration at 2 h (S4): 12.7 ng/mL
concentration at 2.5 h (S4): 5.06 ng/mL
concentration at 3 h (S4): 4.2 ng/mL
concentration at 3.5 h (S4): 2.09 ng/mL
concentration at 4 h (S4): 0 ng/mL
concentration at 5 h (S4): 0 ng/mL
concentration at 6 h (S4): 0 ng/mL
concentration at 8 h (S4): 0 ng/mL
Compound: C=C1CC[C@@H]2[C@](C)(CO)[C@H](O)CC[C@@]2(C)[C@@H]1C/C=C1/C(=O)OC[C@H]1O [andrographolide]
